Laboratory results taken from ChEMBL document CHEMBL1201862, “PubChem BioAssay data set” (2004).
Calls of active or inactive are those of the source.

Experiments:
[1] = biological target: T1, Voltage-gated N-type calcium channel alpha-1B subunit/Amyloid beta A4 precursor protein-binding family A member 1 (Homo sapiens, UniProt Q00975+Q02410); type: protein assay
[2] = biological target: T1, Voltage-gated N-type calcium channel alpha-1B subunit/Amyloid beta A4 precursor protein-binding family A member 1; type: protein assay; remark: listed apart in the source
[3] = THP-1 cell cytotoxicity, dose response, cytotoxicity control for non-replicating M. tuberculosis project (AID 489025); type: functional
cells = type: functional
[4] = fluconazole-exposed Candida albicans growth modulators – fluorescence, retest, confirmation (AID 2467); type: functional, cell-based
Vero = experiment: cells; type: functional; details: Chlorocebus sabaeus
[5] = Luminescence Cell-Based Dose Retest to Confirm Inhibitors of Cancer Stem Cells. [Related pubchem assays (depositor defined):AID2717, AID2721]; type: functional; details: Homo sapiens
[6] = NIH-3T3 fibroblast cytotoxicity, dose response, cytotoxicity control, cell-based, fluorescence, Alamar Blue, secondary assay (AID 2327); type: functional;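 note: NIH-3T3 mouse fibroblasts cultured with fluconazole at 8 µg/mL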
Estrogen receptor = biological target: T2, Estrogen receptor (Homo sapiens, UniProt P03372);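 note: potency for inhibiting coactivator peptide recruitment to the receptor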
T2 sequence (P03372 whole entry): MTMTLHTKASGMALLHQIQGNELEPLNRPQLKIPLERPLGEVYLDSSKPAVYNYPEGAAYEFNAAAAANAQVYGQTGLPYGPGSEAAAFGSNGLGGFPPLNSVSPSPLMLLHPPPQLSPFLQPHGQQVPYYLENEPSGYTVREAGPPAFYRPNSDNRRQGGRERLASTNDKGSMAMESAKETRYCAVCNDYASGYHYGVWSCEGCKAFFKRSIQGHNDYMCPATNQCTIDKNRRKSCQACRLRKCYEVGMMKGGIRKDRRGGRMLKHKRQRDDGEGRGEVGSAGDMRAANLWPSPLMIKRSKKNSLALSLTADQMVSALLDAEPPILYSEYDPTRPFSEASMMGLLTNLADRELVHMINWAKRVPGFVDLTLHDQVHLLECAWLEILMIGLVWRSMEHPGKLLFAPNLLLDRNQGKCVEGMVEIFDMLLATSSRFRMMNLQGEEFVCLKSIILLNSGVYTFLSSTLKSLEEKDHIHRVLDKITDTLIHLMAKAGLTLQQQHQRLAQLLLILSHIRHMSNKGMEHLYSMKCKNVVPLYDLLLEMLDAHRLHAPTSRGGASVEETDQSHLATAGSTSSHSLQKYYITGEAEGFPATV

[7] = biological target: Induced myeloid leukemia cell differentiation protein Mcl-1 (Homo sapiens, UniProt Q07820); type: functional
[8] = HEK-293T viability loss after treatment – luminescence, T-cell screen hits, cytotoxicity control for TCR NF-kB inhibitor project, dose response (AID 489026); type: functional, cell-based;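 note: cells exposed to compound about 14 hours before the viability readout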
[9] = alpha-synuclein stem-loop luciferase translation blockers – H4 neuroglioma cells, luminescence, confirmation (AID 1988); type: functional, cell-based
BJ [10] = experiment: BJ-TERT-LT-ST fibroblast viability loss – cell-based, RAS-independent, luminescence, dose response (AID 1935); type: functional; details: Homo sapiens;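 note: BJ fibroblasts immortalized with TERT plus LT and ST oncogenes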
BJ [11] = experiment: cells; type: functional, cell-based; details: Homo sapiens
[12] = luciferase reporter signal suppression in cells – H4 neuroglioma cells, luminescence, dose response (AID 1990); type: functional, cell-based
BJ [13] = experiment: BJ-TERT fibroblast viability loss – cell-based, RAS-independent, luminescence, dose response (AID 1933); type: functional; details: Homo sapiens
[14] = DRD fibroblast viability loss – cell-based, non-viral oncogenic, luminescence, dose response (AID 1934); type: functional; details: Homo sapiens
[15] = Luminescence Cell-Based Dose Response HTS to Identify Inhibitors of 5'UTR Stem-Loop Driven Prion Protein mRNA Translation in H4 Neuroglioblastoma Cells. [Related pubchem assays: 1827 (Project Summary), 1813 (Primary HTS)]; type: functional
Cytochrome P450 3A4 = Cytochrome P450 3A4 (Homo sapiens, UniProt P08684);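 note: CYP3A4 tested as one member of a cytochrome P450 panel screen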
[16] = biological target: T3, Type-1 angiotensin II receptor (Homo sapiens, UniProt P30556); experiment: antagonism of angiotensin II type 1 receptor – cell-based, uHTS hits, selectivity assay for APJ receptor antagonist project, dose response (AID 463214); type: functional;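 note: antagonist potency against angiotensin II stimulated AT1 response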
T3 sequence (P30556 whole entry): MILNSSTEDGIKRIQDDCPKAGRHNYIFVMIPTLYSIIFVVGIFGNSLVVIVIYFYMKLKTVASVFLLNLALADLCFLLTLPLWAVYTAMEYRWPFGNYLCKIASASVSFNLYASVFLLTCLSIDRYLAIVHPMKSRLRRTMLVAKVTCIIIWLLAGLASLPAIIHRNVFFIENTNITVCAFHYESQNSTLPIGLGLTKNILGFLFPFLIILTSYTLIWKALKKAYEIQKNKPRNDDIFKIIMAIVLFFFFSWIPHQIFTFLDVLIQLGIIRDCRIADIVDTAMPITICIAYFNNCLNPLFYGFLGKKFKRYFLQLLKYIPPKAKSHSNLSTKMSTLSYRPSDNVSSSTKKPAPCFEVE

Coagulation factor XII = biological target: T4, Coagulation factor XII (Homo sapiens, UniProt P00748); type: functional;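 note: activated factor XIIa alpha cleaving a fluorogenic AMC peptide substrate; inhibitor potency from loss of enzyme activity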
T4 sequence (P00748 whole entry): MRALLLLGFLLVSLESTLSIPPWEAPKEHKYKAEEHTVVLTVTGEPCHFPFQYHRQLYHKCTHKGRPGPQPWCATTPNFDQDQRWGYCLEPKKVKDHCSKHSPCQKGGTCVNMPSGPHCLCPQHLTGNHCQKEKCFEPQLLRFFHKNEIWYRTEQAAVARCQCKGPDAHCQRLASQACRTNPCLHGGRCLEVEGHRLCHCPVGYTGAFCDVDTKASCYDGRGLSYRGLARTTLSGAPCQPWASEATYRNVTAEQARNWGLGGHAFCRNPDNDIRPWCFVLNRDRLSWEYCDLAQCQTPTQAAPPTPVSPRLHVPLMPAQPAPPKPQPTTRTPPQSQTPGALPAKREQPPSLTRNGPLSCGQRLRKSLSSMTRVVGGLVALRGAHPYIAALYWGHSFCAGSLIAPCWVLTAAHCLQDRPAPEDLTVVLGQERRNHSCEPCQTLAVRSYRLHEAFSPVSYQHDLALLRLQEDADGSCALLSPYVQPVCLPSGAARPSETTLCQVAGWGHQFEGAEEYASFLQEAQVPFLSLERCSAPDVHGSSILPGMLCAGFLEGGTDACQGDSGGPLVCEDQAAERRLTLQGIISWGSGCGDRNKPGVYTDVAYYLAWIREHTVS

[17] = biological target: T5, Replicative DNA helicase DnaB (Mycobacterium tuberculosis, UniProt P9WMR3); experiment: DnaB intein splicing inhibitors, dose response, biochemical, cell-free fluorescence (AID 449749); type: functional
T5 sequence (P9WMR3 whole entry): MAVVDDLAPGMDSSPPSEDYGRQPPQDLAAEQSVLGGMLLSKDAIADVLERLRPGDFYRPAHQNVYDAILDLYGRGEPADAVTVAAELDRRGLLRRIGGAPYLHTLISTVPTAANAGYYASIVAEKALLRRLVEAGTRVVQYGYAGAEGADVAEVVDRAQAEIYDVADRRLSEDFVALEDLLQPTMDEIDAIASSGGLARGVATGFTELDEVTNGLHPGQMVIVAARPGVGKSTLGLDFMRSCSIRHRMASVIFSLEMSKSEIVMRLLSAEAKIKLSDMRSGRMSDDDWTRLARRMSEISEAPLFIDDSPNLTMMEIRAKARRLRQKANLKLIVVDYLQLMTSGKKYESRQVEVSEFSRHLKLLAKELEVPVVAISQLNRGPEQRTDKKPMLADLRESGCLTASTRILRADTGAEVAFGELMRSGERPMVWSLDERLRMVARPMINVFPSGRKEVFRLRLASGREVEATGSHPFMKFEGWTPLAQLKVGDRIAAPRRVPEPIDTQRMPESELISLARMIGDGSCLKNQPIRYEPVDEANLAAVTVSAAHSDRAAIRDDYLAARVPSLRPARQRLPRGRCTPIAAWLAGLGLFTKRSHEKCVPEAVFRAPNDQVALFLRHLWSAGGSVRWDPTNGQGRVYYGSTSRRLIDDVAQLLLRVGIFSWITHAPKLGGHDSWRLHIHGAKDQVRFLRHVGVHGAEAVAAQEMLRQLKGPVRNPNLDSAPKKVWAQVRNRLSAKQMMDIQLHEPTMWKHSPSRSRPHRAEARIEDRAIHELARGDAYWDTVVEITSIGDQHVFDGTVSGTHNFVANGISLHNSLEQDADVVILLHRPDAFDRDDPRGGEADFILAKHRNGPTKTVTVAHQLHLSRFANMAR

Beta-galactosidase = Beta-galactosidase (Escherichia coli, UniProt Q8VNN2); experiment: PubChem AID 485352; type: functional
Protein RecA = biological target: T6, Protein RecA (Mycobacterium tuberculosis, UniProt P9WHJ3); experiment: Fluorescence Cell-Free Homogeneous Dose Retest to Identify Inhibitors of RecA-Intein Splicing Activity. [Related pubchem assays (depositor defined):AID2097, AID2223, AID489010, AID492950]; type: functional
T6 sequence (P9WHJ3 whole entry): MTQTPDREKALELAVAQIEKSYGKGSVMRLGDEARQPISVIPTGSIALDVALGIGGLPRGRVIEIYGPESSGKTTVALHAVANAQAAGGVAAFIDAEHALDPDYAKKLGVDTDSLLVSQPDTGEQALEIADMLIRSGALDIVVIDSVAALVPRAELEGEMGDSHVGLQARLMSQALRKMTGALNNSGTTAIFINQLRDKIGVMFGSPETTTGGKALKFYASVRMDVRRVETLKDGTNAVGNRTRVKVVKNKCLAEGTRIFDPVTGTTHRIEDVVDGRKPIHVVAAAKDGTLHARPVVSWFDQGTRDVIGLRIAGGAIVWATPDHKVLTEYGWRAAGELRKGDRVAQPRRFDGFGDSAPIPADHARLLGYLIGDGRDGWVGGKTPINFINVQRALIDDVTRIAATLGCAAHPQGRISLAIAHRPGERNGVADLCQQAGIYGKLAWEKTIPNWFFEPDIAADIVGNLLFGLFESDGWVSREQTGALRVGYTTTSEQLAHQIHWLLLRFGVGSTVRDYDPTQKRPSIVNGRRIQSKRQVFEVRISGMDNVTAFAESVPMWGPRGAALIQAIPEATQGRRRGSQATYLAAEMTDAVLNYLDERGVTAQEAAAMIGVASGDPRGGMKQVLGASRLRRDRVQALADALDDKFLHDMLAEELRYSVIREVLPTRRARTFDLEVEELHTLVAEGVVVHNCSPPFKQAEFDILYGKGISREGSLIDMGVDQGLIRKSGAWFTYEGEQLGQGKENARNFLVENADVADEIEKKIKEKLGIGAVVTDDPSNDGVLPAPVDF

T1 sequence (Q00975 whole entry): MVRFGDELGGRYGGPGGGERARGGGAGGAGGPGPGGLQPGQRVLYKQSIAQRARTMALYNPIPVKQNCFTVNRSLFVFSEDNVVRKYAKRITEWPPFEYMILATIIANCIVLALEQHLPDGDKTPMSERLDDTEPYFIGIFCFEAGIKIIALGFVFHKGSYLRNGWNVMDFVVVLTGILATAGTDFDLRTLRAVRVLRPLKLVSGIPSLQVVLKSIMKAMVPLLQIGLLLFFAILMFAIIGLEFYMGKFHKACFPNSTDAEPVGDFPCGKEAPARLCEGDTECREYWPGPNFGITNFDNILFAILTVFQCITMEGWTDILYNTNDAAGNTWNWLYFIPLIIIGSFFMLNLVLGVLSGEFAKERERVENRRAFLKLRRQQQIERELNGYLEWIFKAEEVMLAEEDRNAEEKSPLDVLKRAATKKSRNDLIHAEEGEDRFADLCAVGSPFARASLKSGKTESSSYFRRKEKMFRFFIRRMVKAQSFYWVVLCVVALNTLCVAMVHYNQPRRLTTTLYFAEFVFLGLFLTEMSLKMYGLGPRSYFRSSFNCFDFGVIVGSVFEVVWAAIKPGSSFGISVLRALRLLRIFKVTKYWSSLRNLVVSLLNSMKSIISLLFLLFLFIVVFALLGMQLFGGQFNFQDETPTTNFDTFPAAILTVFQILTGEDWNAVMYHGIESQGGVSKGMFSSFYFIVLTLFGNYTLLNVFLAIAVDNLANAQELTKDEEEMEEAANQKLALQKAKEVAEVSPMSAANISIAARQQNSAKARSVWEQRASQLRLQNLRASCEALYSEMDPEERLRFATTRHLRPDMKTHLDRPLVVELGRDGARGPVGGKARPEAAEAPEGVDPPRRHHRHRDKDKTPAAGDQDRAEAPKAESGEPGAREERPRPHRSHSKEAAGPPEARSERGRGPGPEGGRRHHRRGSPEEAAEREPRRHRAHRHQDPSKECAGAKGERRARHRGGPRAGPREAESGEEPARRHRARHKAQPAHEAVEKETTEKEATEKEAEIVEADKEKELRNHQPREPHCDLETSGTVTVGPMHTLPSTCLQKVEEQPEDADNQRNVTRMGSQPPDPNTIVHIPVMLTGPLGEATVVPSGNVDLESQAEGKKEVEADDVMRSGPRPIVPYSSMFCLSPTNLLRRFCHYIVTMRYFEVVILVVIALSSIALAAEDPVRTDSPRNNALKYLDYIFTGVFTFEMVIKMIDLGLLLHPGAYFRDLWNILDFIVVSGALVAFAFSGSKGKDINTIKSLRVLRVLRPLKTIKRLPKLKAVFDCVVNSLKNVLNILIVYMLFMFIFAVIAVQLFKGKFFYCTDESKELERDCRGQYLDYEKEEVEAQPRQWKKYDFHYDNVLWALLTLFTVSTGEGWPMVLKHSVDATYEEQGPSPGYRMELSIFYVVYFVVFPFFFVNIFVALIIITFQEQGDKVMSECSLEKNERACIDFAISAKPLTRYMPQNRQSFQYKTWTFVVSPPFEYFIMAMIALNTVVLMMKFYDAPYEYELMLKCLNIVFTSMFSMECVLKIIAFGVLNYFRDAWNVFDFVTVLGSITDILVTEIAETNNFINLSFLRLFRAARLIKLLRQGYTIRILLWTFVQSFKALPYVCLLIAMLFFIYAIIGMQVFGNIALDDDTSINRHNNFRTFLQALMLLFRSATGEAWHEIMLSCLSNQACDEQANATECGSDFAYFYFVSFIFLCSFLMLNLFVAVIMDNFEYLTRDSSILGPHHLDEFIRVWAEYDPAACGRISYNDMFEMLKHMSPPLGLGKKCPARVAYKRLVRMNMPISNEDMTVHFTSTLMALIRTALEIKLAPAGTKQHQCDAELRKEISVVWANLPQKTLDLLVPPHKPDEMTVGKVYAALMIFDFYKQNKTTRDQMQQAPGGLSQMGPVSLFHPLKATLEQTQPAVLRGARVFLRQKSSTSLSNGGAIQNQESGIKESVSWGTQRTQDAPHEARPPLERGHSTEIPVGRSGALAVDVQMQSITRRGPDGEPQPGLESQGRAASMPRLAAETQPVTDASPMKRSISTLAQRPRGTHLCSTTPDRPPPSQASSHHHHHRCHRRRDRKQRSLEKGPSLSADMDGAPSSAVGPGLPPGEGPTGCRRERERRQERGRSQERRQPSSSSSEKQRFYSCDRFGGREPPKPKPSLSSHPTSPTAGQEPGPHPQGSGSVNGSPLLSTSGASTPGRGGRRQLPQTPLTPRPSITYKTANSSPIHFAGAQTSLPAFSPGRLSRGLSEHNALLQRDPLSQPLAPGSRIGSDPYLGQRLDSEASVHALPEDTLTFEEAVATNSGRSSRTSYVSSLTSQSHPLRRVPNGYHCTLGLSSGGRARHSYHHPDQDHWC
T1 sequence (Q02410 whole entry): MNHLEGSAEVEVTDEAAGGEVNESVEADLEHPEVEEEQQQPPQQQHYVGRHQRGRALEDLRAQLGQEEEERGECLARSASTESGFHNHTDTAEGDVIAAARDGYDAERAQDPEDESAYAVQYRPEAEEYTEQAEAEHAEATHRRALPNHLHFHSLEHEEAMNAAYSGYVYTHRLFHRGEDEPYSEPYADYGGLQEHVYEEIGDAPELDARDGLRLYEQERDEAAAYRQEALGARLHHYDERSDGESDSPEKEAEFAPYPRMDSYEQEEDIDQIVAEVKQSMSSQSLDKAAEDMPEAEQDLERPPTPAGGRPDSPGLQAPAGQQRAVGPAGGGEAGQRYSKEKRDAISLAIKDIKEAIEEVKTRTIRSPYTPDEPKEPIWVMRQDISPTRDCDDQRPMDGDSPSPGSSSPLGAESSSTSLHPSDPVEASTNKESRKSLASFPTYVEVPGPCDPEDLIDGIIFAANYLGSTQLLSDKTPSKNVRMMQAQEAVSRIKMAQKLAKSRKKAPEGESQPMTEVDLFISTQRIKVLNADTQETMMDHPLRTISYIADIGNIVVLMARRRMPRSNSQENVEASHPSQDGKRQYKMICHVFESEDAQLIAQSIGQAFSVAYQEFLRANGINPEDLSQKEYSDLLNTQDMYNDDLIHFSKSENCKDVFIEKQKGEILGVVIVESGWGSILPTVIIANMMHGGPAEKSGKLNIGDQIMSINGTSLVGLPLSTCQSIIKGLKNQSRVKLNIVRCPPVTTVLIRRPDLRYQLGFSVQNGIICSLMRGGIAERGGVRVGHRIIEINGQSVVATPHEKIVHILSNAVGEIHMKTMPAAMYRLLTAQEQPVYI
Sequence of Cytochrome P450 3A4 (P08684 whole entry): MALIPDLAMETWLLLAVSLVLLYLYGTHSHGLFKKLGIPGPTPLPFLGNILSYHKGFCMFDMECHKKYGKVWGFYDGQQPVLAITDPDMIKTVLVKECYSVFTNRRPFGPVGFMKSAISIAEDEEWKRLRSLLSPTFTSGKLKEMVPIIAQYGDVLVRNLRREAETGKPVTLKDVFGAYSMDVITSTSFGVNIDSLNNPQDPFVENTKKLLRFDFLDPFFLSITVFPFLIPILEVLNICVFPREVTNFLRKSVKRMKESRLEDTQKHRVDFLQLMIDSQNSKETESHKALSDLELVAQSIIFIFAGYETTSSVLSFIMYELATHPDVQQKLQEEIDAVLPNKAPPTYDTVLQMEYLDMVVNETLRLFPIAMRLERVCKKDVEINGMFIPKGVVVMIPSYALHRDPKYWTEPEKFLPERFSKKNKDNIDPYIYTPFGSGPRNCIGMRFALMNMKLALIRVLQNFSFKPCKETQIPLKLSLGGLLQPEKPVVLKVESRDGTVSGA
Sequence of Beta-galactosidase (Q8VNN2 whole entry): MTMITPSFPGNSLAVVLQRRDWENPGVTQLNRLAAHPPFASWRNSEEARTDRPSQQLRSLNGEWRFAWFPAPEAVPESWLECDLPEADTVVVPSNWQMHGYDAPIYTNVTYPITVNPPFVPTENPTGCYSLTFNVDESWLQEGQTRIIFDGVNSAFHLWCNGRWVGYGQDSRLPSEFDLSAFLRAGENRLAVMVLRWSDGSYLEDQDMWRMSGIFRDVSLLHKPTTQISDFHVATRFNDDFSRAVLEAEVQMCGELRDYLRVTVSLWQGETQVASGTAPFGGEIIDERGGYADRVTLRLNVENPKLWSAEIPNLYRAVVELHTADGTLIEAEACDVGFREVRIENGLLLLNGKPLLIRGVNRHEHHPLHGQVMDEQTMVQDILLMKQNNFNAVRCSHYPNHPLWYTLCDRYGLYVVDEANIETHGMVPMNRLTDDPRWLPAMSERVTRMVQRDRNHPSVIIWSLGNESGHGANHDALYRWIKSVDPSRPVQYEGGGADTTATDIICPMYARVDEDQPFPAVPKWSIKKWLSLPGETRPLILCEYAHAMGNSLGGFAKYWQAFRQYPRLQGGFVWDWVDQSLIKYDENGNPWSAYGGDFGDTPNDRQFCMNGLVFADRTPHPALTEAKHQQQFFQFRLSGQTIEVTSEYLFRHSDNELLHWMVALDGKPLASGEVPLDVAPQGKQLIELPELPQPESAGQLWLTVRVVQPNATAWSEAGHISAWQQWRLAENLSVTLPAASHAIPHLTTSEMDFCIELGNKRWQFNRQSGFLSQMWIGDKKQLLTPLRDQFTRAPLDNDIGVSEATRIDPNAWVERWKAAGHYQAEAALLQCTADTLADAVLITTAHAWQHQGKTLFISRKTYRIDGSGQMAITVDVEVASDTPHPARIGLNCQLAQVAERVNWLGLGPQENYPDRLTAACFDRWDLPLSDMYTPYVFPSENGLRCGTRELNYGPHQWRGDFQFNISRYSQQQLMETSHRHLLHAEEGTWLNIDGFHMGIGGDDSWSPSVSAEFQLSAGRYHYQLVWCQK
Sequence of Induced myeloid leukemia cell differentiation protein Mcl-1 (Q07820 whole entry): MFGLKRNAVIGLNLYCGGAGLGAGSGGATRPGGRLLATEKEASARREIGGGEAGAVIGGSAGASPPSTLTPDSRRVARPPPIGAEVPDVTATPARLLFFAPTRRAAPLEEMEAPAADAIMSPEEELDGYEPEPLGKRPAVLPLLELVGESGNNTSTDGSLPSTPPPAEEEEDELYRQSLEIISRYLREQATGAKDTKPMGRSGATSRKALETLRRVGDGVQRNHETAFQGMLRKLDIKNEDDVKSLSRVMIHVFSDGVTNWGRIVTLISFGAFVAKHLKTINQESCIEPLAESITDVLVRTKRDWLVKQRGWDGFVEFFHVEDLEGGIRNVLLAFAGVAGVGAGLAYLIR

## O=c1[nH]c(-c2ccc3c(c2)OCO3)nc2c1sc(=S)n2-c1ccccc1
[1]
  IC50: 5.13 µM (active)
[2]
  IC50: > 50 µM (inactive)

## OC(CNCCc1ccc(C(F)(F)F)cc1)COc1ccc2ccccc2c1 (stereo not drawn)
[3]
  CC50: > 40 µM (active)
cells
  IC50: 22.4 µM (active)
[4]
  EC50: > 38 µM (not active)
Vero
  CC50: 16.6 µM (active)
[5]
  AC50: 3.34 µM (active)
[6]
  EC50: 7.21 µM (active)

## COc1cc(OC)nc(NC(=O)C(C)C)n1
Estrogen receptor
  IC50: > 50 µM (not active)

## CCCc1nnc2n1N=C(c1ccc(-c3cc(Cl)ccc3Cl)o1)CS2
Estrogen receptor
  IC50: 13.4 µM (active)

## O=C(CSc1nc2c(c(=O)n1-c1ccc(Br)cc1)SCC2)Nc1nccs1
Estrogen receptor
  IC50: > 50 µM (not active)

## CC(/C=C/c1ccco1)=N\NC(=O)c1cc(C)[nH]n1
[1]
  IC50: 4.52 µM (active)
[7]
  IC50: 4.92 µM (active)
[2]
  IC50: 11.8 µM (active)

## CCOc1ccc(NC(=N)Nc2nc(O)cc(CSc3nnc(C)s3)n2)cc1
[8]
  IC50: > 80 µM (inactive)
[9]
  EC50: 5.83 µM (active)
BJ [10]
  EC50: 1.37 µM (active)
BJ [11]
  EC50: 20.6 µM (active)
[12]
  EC50: 9.79 µM (active)
BJ [13]
  EC50: 1.11 µM (active)
[5]
  AC50: 0.298 µM (active)
[14]
  EC50: 0.597 µM (active)
[15]
  EC50: 291 nM (active)

## COc1cc(NC(=O)c2ccccc2F)ccc1NC(=O)c1cc2ccccc2o1
[1]
  IC50: 15.9 µM (active)
[2]
  IC50: > 50 µM (inactive)

## COc1cccc(NC(=N)Nc2nc(O)cc(CSc3ccccn3)n2)c1
[8]
  IC50: > 80 µM (inactive)

## CCCCOc1ccccc1C1CC(=O)NC2=C1C(=O)CCC2 (stereo not drawn)
[8]
  IC50: > 80 µM (inactive)
Cytochrome P450 3A4
  AC50: 15.8 µM (inconclusive)

## CCN(CC)C(=O)C(C(=O)c1cccc([N+](=O)[O-])c1)n1cc(Cl)ccc1=O (stereo not drawn)
BJ [10]
  EC50: > 150 µM (inconclusive)
BJ [11]
  EC50: > 150 µM (not active)
BJ [13]
  EC50: > 150 µM (not active)
[14]
  EC50: > 150 µM (not active)

## O=C(Nc1cnc(O)nc1O)c1ccc2c(c1)C(=O)N(c1cccc([N+](=O)[O-])c1)C2=O
[1]
  IC50: 9.85 µM (active)
[2]
  IC50: > 50 µM (inactive)

## COC(=O)CS(=O)(=O)c1nnc([C@H](Cc2ccccc2)NC(=O)OC(C)(C)C)o1
[16]
  IC50: 12.4 µM (active)
Coagulation factor XII
  IC50: 8.95 µM (active)
[17]
  AC50: 6.11 µM (active)
Beta-galactosidase
  EC50: > 40 µM (inactive)
Protein RecA
  EC50: 7.24 µM (active)

## COC(Cn1c(C)c(C(C)=O)c(C(C)=O)c1C)OC
Coagulation factor XII
  IC50: > 50 µM (inactive)

## CCOc1ccc(N=C(N)Nc2nc(CSc3nnc(C)s3)cc(=O)[nH]2)cc1
Coagulation factor XII
  IC50: > 50 µM (inactive)

## CN1CCN(S(=O)(=O)c2ccc(Br)s2)CC1
Coagulation factor XII
  IC50: > 50 µM (inactive)

## Cc1cccc(Nc2cc(=O)[nH]c(=O)[nH]2)c1C
Coagulation factor XII
  IC50: > 50 µM (inactive)
